Like-named read-outs stand apart in the source and are kept apart here.
Columns and labels:
[1] = tested on: isolated glands
Experimental: In this series of studies Rats were given free access to water and normal rat chow for a period of 5 days. In one group 30 μM ZnSO4.7H2O was added to the drinking water so that the animals are getting a constant exposure of ZnSO4.7H2O. At the end of the 5 day period the animals were sacrificed and the stomach removed. We examined how these glands performed to addition of a secretagogue as previously defined in Protocol 1. In the second group we repeated the study giving 3 μM ZnSO4.7H2O for the 5 day period while allowing normal access to food and water.

[2] = tested on: isolated human glands; conditions: for inhibitory effect on secretagogue induced acid secretion, in words: human gastric glands
Experimental: (§1) In this series of studies we used glands from rats that have been fasted for 18 hours with free access to water to reduce basal acid secretion to zero. Following isolation the glands were placed in a perfusion chamber that was maintained at 37° C. Prior to exposure to the Zn solution the glands were loaded with the Fluorescent reagent BCECF to monitor intracellular pH, this is based on technology we have used in the lab. In these studies we stimulated acid secretion by exposing the individual glands to 200 μM Carbachol a well characterized activator of acid secretion. In parallel to these studies (Control glands) we exposed glands from the same animal to a solution that contained ZnSO4.7H2O. […] In subsequent studies we then reduced the concentration of ZnSO4.7H2O by an order of magnitude ([…]) and repeated the study. For each dose used a minimum of 5 animals was used. […] We reduced to a concentration of 0.03 μM.
Note that doses of 300 μM and 3 μM were used. […] All data are the means from 5 separate human samples.

[3] = tested on: isolated gastric glands; conditions: for reduction in secretagogue induced proton secretion (proton extrusion, acid production): Carbachol 200 μM, means from 5 rats; for inhibitory effect on secretagogue induced acid secretion, in words: rat gastric glands
Experimental: as §1

[4] = tested on: isolated stomachs; conditions: simultaneous with secretagogue, 15 minute exposure, fasted rats
Experimental: We took age and sex matched animals for these studies. The stomach was excised and perfused with 0.5 ml of nonbuffered saline solution in vitro with a solution of either 200 μM Carbachol or ZnSO4.7H2O+200 μM Carbachol following a 15 minute perfusion time we collected the effluent from the stomach and measure intragastric pH in this fluid following a protocol that we have used in the past.

[5] = listed as zinc sulfate heptahydate

O.O.O.O.O.O.O.O=S(=O)([O-])[O-].[Zn+2] [zinc sulfate heptahydrate]
basal acid secretion in the gland ([1]; 3 μM in drinking water for 7 days, versus blank water): slightly higher than blank water
Carbachol (secretagogue) induced acid secretion ([1]; 3 μM in drinking water for 7 days, versus matched controls): marked suppression
basal acid secretion in the gland ([1]; 30 μM, 1 week ad lib access): no basal acid secretion
secretagogue (carbachol) induced acid secretion in the gland ([1]; 30 μM, 1 week ad lib access): no effect
inhibition of proton extrusion (acid secretion) ([2]; doses of 300 μM and 3 μM, Carbachol, means from 5 human samples): highly significant inhibition of proton extrusion (p<0.0001)
inhibitory effect on secretagogue induced acid secretion, in words ([2]; listed as ZnSO4.7H2O): potent inhibitor
inhibitory effect on secretagogue induced acid secretion, in words [2, 5]: abolishing the activity of the gastric H^+,K^+-ATPase
inhibiting acid secretion in the stomach ([3]; about 0.3 μM to about 300 μM, more often about 3 μM to about 30 μM): almost complete inhibition
reduction in secretagogue induced proton secretion (proton extrusion, acid production) ([3]; dose of 0.03 μM): p<0.03 significant reduction
reduction in secretagogue induced proton secretion (proton extrusion, acid production) ([3]; dose of 0.03 μM, listed as ZnSO4.7H2O): modest yet significant inhibition of acid secretion (p<0.03)
reduction in secretagogue induced proton secretion (proton extrusion, acid production) ([3]; doses from 300 to 0.3 μM): significant p<0.0001 reduction
reduction in secretagogue induced proton secretion (proton extrusion, acid production) ([3]; doses from 300 to 0.3 μM, listed as ZnSO4.7H2O): highly significant inhibition of proton extrusion (p<0.0001)
inhibitory effect on secretagogue induced acid secretion, in words ([3]; listed as ZnSO4.7H2O): potent inhibitor
inhibitory effect on secretagogue induced acid secretion, in words [3, 5]: abolishing the activity of the gastric H^+,K^+-ATPase
elevation in gastric pH ([4]; 3 μM, listed as ZnSO4Heptahydrate): ≥ 1 pH unit
elevation in gastric pH ([4]; 3 μM, listed as ZnSO4.7H2O): 1 pH unit
elevation in gastric pH ([4]; 30 μM, listed as ZnSO4Heptahydrate): ≥ 1 pH unit
elevation in gastric pH ([4]; 30 μM, listed as ZnSO4.7H2O): 1 pH unit
